Test results reported in patent US7381722B2, “Tetracyclic amino and carboxamido compounds and methods of use thereof” (Inotek Pharmaceuticals Corporation, priority 2005, dated 2008).

What follows are compounds tested against T1, PARS (Mus musculus, UniProt P11103) (assay: Cell protection assay: PARS activity in peroxynitrite-treated Raw murine macrophages). Details: compound 15 min before peroxynitrite (750 μM) for 15 min, PARS activity by 3H-NAD incorporation, EC50 from dose-response curve.
T1 construct: endogenous in cells; host or cells: Raw murine macrophages
T1 sequence (P11103 whole entry): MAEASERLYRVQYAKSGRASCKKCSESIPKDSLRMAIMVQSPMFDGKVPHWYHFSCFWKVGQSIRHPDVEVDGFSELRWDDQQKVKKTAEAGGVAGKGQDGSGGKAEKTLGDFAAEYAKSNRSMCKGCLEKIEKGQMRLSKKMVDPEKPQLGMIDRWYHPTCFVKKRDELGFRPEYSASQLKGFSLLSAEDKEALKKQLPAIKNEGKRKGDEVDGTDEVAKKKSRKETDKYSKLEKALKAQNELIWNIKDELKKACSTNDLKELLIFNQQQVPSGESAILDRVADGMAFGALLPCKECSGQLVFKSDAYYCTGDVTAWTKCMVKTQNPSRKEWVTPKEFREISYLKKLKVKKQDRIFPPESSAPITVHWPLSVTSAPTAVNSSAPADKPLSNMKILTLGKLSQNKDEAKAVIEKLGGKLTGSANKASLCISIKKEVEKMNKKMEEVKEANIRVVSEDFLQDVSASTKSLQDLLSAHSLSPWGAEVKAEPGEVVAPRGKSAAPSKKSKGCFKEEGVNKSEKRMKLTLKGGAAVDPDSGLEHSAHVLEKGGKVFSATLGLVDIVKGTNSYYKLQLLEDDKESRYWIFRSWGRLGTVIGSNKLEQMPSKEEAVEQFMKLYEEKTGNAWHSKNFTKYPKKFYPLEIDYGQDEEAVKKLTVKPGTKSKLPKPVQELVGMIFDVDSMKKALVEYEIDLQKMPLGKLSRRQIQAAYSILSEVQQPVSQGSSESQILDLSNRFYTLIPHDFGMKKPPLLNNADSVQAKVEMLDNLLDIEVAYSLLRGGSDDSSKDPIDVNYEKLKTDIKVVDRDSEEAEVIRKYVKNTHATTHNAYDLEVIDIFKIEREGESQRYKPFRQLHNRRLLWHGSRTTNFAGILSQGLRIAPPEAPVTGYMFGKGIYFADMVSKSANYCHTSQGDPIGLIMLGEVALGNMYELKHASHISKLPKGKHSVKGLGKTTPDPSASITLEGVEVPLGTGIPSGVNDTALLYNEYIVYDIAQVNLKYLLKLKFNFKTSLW
Assay type: cell-based
Description: Raw murine macrophages were treated with an illustrative Tetracyclic Amino Compound or Tetracyclic Carboxamido Compound for 15 minutes prior to the addition of peroxynitrite (750 μM) for a further 15 minutes. For the measurement of PARS activity, the media were removed and replaced with 0.5 ml HEPES (pH 7.5) containing 0.01% digitonin and ^3H-NAD (0.5 μCi ml^−1, final concentration of NAD^+ in buffer is 20 nM/L) for 20 minutes. The cells were then scraped from the wells and placed in Eppendorf tubes containing 200 μl of 50% (w/v) ice-cold trichloroacetic acid (TCA). The tubes were then placed at 4° C. After 4 hr the tubes were centrifuged at 1800 g for 10 minutes and the supernatant removed. The pellets were washed twice with 500 μl ice-cold 5% TCA. The pellets were solubilized in 250 μl NaOH (0.1 M) containing 2% SDS overnight at 37° C. and the PARS activity was then determined by measuring the radioactivity incorporated using a Wallac scintillation counter. The solubilized protein (250 μl) was mixed with 5 ml of scintillant (ScintiSafe Plus, Fisher Scientific) before being counted for 10 minutes. The EC50 value was calculated from a dose-response curve.
With O=C(NCCCN1CCOCC1)c1cccc2c1Cc1c-2[nH]c(=O)c2ccccc12 [Compound 16b] the EC50 was > 1500 nM. With O=C(NCCN1CCOCC1)c1cccc2c1Cc1c-2[nH]c(=O)c2ccccc12 [Compound 16a] the EC50 was > 1500 nM. For CN(C)CCNC(=O)c1cccc2c1Cc1c-2[nH]c(=O)c2ccccc12 [Compound 15a], the EC50 was > 1500 nM. An EC50 of 1100 nM was found for O=C(NCCCN1CCOCC1)c1ccc2c(c1)Cc1c-2[nH]c(=O)c2ccccc12 [Compound 14b] in this work. With CN(C)CCCNC(=O)c1cccc2c1Cc1c-2[nH]c(=O)c2ccccc12 [Compound 15b] the EC50 was > 1500 nM. An EC50 of 1100 nM was found for O=C(NCCN1CCOCC1)c1ccc2c(c1)Cc1c-2[nH]c(=O)c2ccccc12 [Compound 14a] in this work. An EC50 of 900 nM was found for CN(C)CCCNC(=O)c1ccc2c(c1)Cc1c-2[nH]c(=O)c2ccccc12 [Compound 13b] in this work.
